Test results taken from patent US12673070B2, “Treatment of sepsis and hypercytokinemia” (TX MEDIC AB, priority 2020, dated 2026).
Entries after “also recorded” stand apart in the source; their conditions may differ.

What was measured:
[1] = monoclonal antibodies neutralizing TNFα; cited from earlier work
[2] = tested on: human peripheral blood mononuclear cells (PBMCs); assay: Stimulated release of IL-6 from human PBMCs in vitro (ELISA), Example 1; format: cell-based; conditions: 24 hours
Protocol: PBMCs were isolated from healthy donors through Ficoll-Paque PLUS (GE Healthcare; 11778538) density centrifugation. PBMC were cultured at 2×10^5 cells/well in the absence (unstimulated phosphate-buffered saline (PBS) vehicle controls) or presence of stimulation (lipopolysaccharide (LPS), peptidoglycan, pokeweed mitogen, phytohemagglutinin-L (PHA-L), CpG+IL-15, or Cytostim) in the absence (vehicle) or presence of LMW-DS (ILB®, Tikomed AB, Viken, Sweden, WO 2016/076780) at three concentrations; 60 μg/ml, 200 μg/ml and 600 μg/ml for 24 hours at 37° C., 5% CO2. Following centrifugation, cell culture supernatants were removed and stored at −20° C. awaiting analysis for IL-6 by ELISA. Levels of IL-6 were quantified in the supernatant by ELISA (R&D systems; DY206) according to manufacturer's instructions.

human purified monocytes = assay: Stimulated IL-6 release from human purified monocytes (ELISA), Example 2; format: cell-based; conditions: 24 hours, LMW-DS 60-600 μg/ml, heparin 2.0-20 μg/ml, dexamethasone 3.0 μM, n=10 donors; for LPS-stimulated IL-6 release into the cell culture supernatant: LPS (0.01 ng/ml); for peptidoglycan-stimulated IL-6 release into the cell culture supernatant: peptidoglycan (30 ng/ml)
Protocol: Peripheral blood mononuclear cells (PBMC) were isolated from healthy donors through Ficoll-Paque PLUS (GE Healthcare; 11778538) density centrifugation. Monocytes were purified using the EasySep™ human monocyte enrichment kit (StemCell) that purifies monocytes ‘untouched’ to maintain their phenotype.
Monocytes were cultured in the absence (unstimulated PBS vehicle controls) or presence of stimulation (LPS or peptidoglycan) in the absence (vehicle) or presence of LMW-DS (ILB®, Tikomed AB, Viken, Sweden, WO 2016/076780; three concentrations: 600 μg/ml, 200 μg/ml and 60 μg/ml), heparin (2.0, 6.0 or 20 μg/ml; equivalent to 0.406, 1.218 and 4.06 units/ml; Sigma Aldrich) or dexamethasone (3.0 μM; Sigma Aldrich) for 24 hours at 37° C., 5% CO2. Following centrifugation, cell culture supernatants were removed and stored at −20° C. awaiting analysis for IL-6 by ELISA. Levels of IL-6 were quantified in the supernatant by ELISA (R&D systems) according to manufacturer's instructions.

human PBMCs = assay: Cytokine secretion from stimulated human PBMCs (5-plex Luminex), Example 3; format: cell-based; conditions: 24 hours; for stimulated secretion of IL-1β / stimulated secretion of IL-8 / stimulated secretion of TNFα: highest concentration of LMW-DS
Protocol: Example 1 investigated the ability of LMW-DS to modify the secretion of IL-6 from human PBMCs arising from the use of various stimuli. The present study performed a broader analysis of the cell culture supernatants arising from Example 1. Thus, peripheral blood mononuclear cells (PBMC) were isolated from healthy donors through Ficoll-Paque PLUS density centrifugation. The PBMC were cultured at 2×10^5 cells/well in the absence (unstimulated PBS vehicle controls) or presence of stimulation (LPS, peptidoglycan, pokeweed mitogen, PHA-L, CpG+IL-15, or Cytostim) in the absence (vehicle) or presence of LMW-DS (ILB®, Tikomed AB, Viken, Sweden, WO 2016/076780; three concentrations; 600 μg/ml, 200 μg/ml and 60 μg/ml) for 24 hours at 37° C., 5% CO2.
Accordingly, the treatments were as follows for each PBMC donor: • i. Vehicle • ii. Simulation • iii. Stimulation+LMW-DS (60 μg/ml) • iv. Stimulation+LMW-DS (200 μg/ml) • v. Stimulation+LMW-DS (600 μg/ml)
with each assessed in triplicate such that the total numbers of samples were: • 1. LPS; 165 samples (from 11 donors) • 2. Peptidoglycan from Bacillus subtilis; 90 samples (from 6 donors) • 3. PHA-L; 90 samples (from 6 donors) • 4. 0.2 μM CpG+IL-15; 90 samples (from 6 donors) • 5. 1.0 μM CpG+IL-15; 90 samples (from 6 donors) • 6. Pokeweed mitogen; 90 samples (from 6 donors) • 7. 10 μl/ml Cytostim; 90 samples (from 6 donors) • 8. 30 μl/ml Cytostim; 90 samples (from 6 donors) • Total number of supernatant samples from all stimulations (all cell types)=795
Following treatment, cell culture supernatants were removed, centrifuged and stored at −20° C. before thawing for multiplex analysis of various cytokines using the 5-plex human magnetic Luminex assay from R&D systems (Cat. No. LXSAHM-05). Luminex analysis was carried out exactly following manufacturer's protocols.

IL-6 = assay: Serum IL-6 in MND/ALS patients treated with LMW-DS (Luminex), Example 4; format: in vivo, human; conditions: 8 ALS patients; weekly 1.0 mg/kg s.c.; measured at 10 weeks of treatment
From the text: Serum samples were taken from Motor Neuron Disease (MND)/Amyotrophic Lateral Sclerosis (ALS) patients in a clinical trial (EudraCT Number: 2018-000668-28) prior to and 5, 10 and 24 weeks following treatment with LMW-DS (ILB®, Tikomed AB, Viken, Sweden, WO 2016/076780). Frozen serum samples were thawed and quantified for IL-6 using the Luminex assay system (Bio-Plex 200 system with Bio-Plex Manager software) according to manufacturer's instructions. After an initial screening visit, patients had weekly dosing of a single LMW-DS (ILB®, Tikomed AB, Viken, Sweden, WO 2016/076780) injection of 1.0 mg/kg body weight in saline into the subcutaneous fat of the lower abdomen with a maximum of 1.5 mL at each injection site.
Statistical analysis was performed using the non-parametric Mann-Whitney U test with p<0.05 considered significant.

[3] = LPS (0.01 ng/ml) stimulated PBMC, 60, 200, 600 μg/ml
[4] = LPS (0.01 ng/ml) stimulated PBMC, 60, 200, 600 μg/ml, listed as Dextran sulfate
[5] = PHA-L (1.0 μg/ml) stimulated PBMC, 60, 200, 600 μg/ml
[6] = pokeweed mitogen (1.0 μg/ml) stimulated PBMC, 60, 200, 600 μg/ml
[7] = pokeweed mitogen (1.0 μg/ml) stimulated PBMC, 60, 200, 600 μg/ml, listed as dextran sulfate
[8] = Cytostim stimulated PBMC, listed as Dextran sulfate
[9] = LPS (0.01 ng/ml) stimulated PBMC
[10] = LPS (0.01 ng/ml) stimulated PBMC, listed as Dextran sulfate
[11] = PHA-L (1.0 μg/ml) stimulated PBMC
[12] = PHA-L (1.0 μg/ml) stimulated PBMC, listed as Dextran sulfate
[13] = peptidoglycan (30 ng/ml) stimulated PBMC
[14] = pokeweed mitogen (1.0 μg/ml) stimulated PBMC

Substance: certolizumab
- half-life [1]: around 14 days

Substance: low molecular weight dextran sulfate [LMW-DS]
- IL-6 release ([2]; CpG (0.2 μM)+IL-15 (15 ng/ml) stimulated PBMC): not generally impacted
- IL-6 release ([2]; Cytostim (10 μl/ml) stimulated PBMC): not generally impacted
- IL-6 release into the cell culture supernatant [2, 3]: concentration dependent and statistically significant reduction
- IL-6 release into the cell culture supernatant [2, 4]: concentration dependent reduction
- IL-6 release into the cell culture supernatant ([2]; LPS (0.01 ng/ml) stimulated PBMC, 60, 200, 600 μg/ml, listed as dextran sulfate): suppress IL-6 cytokine production
- IL-6 release [2, 5]: inhibited significantly in a concentration-dependent manner
- IL-6 release ([2]; higher concentration CpG (1.0 μM)+IL-15 (15 ng/ml) stimulated PBMC): no general impact
- IL-6 release ([2]; higher concentration CpG (1.0 μM)+IL-15 (15 ng/ml) stimulated PBMC, listed as dextran sulfate): not significantly affecting
- IL-6 release ([2]; higher concentration Cytostim (30 μl/ml) stimulated PBMC): no general impact
- IL-6 release ([2]; higher concentration Cytostim (30 μl/ml) stimulated PBMC, listed as dextran sulfate): not significantly affecting
- IL-6 release into the cell culture supernatant ([2]; peptidoglycan (30 ng/ml) stimulated PBMC, 60, 200, 600 μg/ml): little evidence of LMW-DS, even at the highest concentration tested, of causing a general reduction in IL-6 release
- IL-6 release into the cell culture supernatant ([2]; peptidoglycan (30 ng/ml) stimulated PBMC, 60, 200, 600 μg/ml, listed as dextran sulfate): not significantly affecting
- IL-6 release [2, 6]: not impacted generally
- IL-6 release [2, 7]: not significantly affecting
- LPS-stimulated IL-6 release into the cell culture supernatant (human purified monocytes): concentration dependent statistically significant inhibition
- LPS-stimulated IL-6 release into the cell culture supernatant (human purified monocytes; listed as Dextran sulfate): concentration dependent reduction
- peptidoglycan-stimulated IL-6 release into the cell culture supernatant (human purified monocytes): concentration dependent statistically significant increase
- secretion of IL-8 (human PBMCs; CpG+IL-15 stimulated PBMC): little impact
- IL-10 secretion (human PBMCs; Cytostim stimulated PBMC, 60, 200, 600 μg/ml): concentration dependent large reduction
- IL-10 secretion (human PBMCs; Cytostim stimulated PBMC, 60, 200, 600 μg/ml, listed as Dextran sulfate): reduction
- secretion of IFNγ (human PBMCs; Cytostim stimulated PBMC): small reductions
- secretion of IL-1β (human PBMCs; Cytostim stimulated PBMC): small reductions
- secretion of IL-8 (human PBMCs; Cytostim stimulated PBMC): small reductions
- secretion of TNFα (human PBMCs; Cytostim stimulated PBMC): small reductions
- secretion of IFNγ (human PBMCs; [8]): reduction
- secretion of IL-8 (human PBMCs; [8]): reduction
- secretion of TNFα (human PBMCs; [8]): reduction
- secretion of IFNγ (human PBMCs; [3]): concentration dependent but small reduction
- secretion of IL-10 (human PBMCs; [3]): concentration dependent but small reduction
- secretion of IFNγ (human PBMCs; [4]): reduction
- secretion of IL-10 (human PBMCs; [4]): reduction
- stimulated secretion of IL-1β (human PBMCs; [9]): modest reduction
- stimulated secretion of IL-8 (human PBMCs; [9]): modest reduction
- stimulated secretion of TNFα (human PBMCs; [9]): modest reduction
- stimulated secretion of IL-1β (human PBMCs; [10]): reduction
- stimulated secretion of IL-8 (human PBMCs; [10]): reduction
- stimulated secretion of TNFα (human PBMCs; [10]): reduction
- IL-10 secretion (human PBMCs; [5]): large, concentration dependent decrease
- IL-10 secretion (human PBMCs; PHA-L (1.0 μg/ml) stimulated PBMC, 60, 200, 600 μg/ml, listed as Dextran sulfate): reduction
- stimulated release of IFNγ (human PBMCs; [11]): small decreases
- stimulated release of IL-8 (human PBMCs; [11]): small decreases
- stimulated release of TNFα (human PBMCs; [11]): small decreases
- stimulated release of IFNγ (human PBMCs; [12]): reduction
- stimulated release of TNFα (human PBMCs; [12]): reduction
- IL-1β secretion (human PBMCs; [13]): associated increases
- TNFα secretion (human PBMCs; [13]): associated increases
- cytokine release (IL-8) (human PBMCs; peptidoglycan (30 ng/ml) stimulated PBMC, up to highest concentration tested): little evidence of LMW-DS, even at the highest concentration tested, of causing a general reduction in cytokine release
- IL-10 secretion (human PBMCs; [6]): concentration-dependent decrease
- IL-10 secretion (human PBMCs; [7]): reduction
- secretion of IFNγ (human PBMCs; [14]): not impacted generally
- secretion of IL-1β (human PBMCs; [14]): not impacted generally
- secretion of IL-8 (human PBMCs; [14]): not impacted generally
- secretion of TNFα (human PBMCs; [14]): not impacted generally
- serum IL-6 levels as % of Pre-LMW-DS levels (IL-6): statistically significant decrease

Substance: heparin [reference compound]
- LPS-stimulated IL-6 release into the cell culture supernatant (human purified monocytes): concentration dependent statistically significant enhancement; also recorded: did not significantly suppress IL-6 levels in LPS activated monocytes but rather increased the levels
- peptidoglycan-stimulated IL-6 release into the cell culture supernatant (human purified monocytes): enhancement was mirrored to some extent by heparin although the trend did not reach statistical significance

Substance: adalimumab
- half-life [1]: around 14 days

Substance: infliximab
- half-life [1]: around 14 days
